Paper PMC12785651, “The Role of Active Site Hydrophobic Interactions in Facilitating Catalysis in Human Terminal Deoxynucleotidyl Transferase” (International Journal of Molecular Sciences, 2025)

Legend:
[1] = target: T1, TdT (human terminal deoxynucleotidyl transferase, hTdT) (Homo sapiens, UniProt P04053); assay: microscale thermophoresis (Monolith NT.[…]); type: binding; settings: 50 mM Tris-HCl pH 8.0, 5 mM MnCl2, 37 °C; no primer listed; Hill coefficient fixed at 2; labelled compound (fluorescein); read-out: Kd, μM / Flu-dUTP
T1 construct: gene DNTT; expression per earlier publication

[2] = target: T2, TdT (human terminal deoxynucleotidyl transferase, hTdT) (Homo sapiens, UniProt P04053, L397A); assay: microscale thermophoresis (Monolith NT.[…]); type: binding; settings: 50 mM Tris-HCl pH 8.0, 5 mM MnCl2, 37 °C; no primer listed; Hill coefficient fixed at 2; labelled compound (fluorescein); read-out: Kd, μM / Flu-dUTP
T2 construct: gene DNTT; expression per earlier publication

[3] = target: T3, TdT (human terminal deoxynucleotidyl transferase, hTdT) (Homo sapiens, UniProt P04053, F400A); assay: microscale thermophoresis (Monolith NT.[…]); type: binding; settings: 50 mM Tris-HCl pH 8.0, 5 mM MnCl2, 37 °C; no primer listed; Hill coefficient fixed at 2; labelled compound (fluorescein); read-out: Kd, μM / Flu-dUTP
T3 construct: gene DNTT; expression per earlier publication

[4] = target: T4, TdT (human terminal deoxynucleotidyl transferase, hTdT) (Homo sapiens, UniProt P04053, F404W); assay: microscale thermophoresis (Monolith NT.[…]); type: binding; settings: 50 mM Tris-HCl pH 8.0, 5 mM MnCl2, 37 °C; no primer listed; Hill coefficient fixed at 2; labelled compound (fluorescein); read-out: Kd, μM / Flu-dUTP
T4 construct: gene DNTT; expression per earlier publication

[5] = target: T5, TdT (human terminal deoxynucleotidyl transferase, hTdT) (Homo sapiens, UniProt P04053, F404A); assay: microscale thermophoresis (Monolith NT.[…]); type: binding; settings: 50 mM Tris-HCl pH 8.0, 5 mM MnCl2, 37 °C; no primer listed; Hill coefficient fixed at 2; labelled compound (fluorescein); read-out: Kd, μM / Flu-dUTP
T5 construct: gene DNTT; expression per earlier publication

TdT F400A = TdT F400A (human, UniProt P04053 1-509, F400A); assay: EMSA; 5 mM MgCl2; Hill h fixed at 2; EMSA: 50 mM Tris-HCl pH 8.0, 5 mM MgCl2, 7% glycerol; 0.5 uM FAM-M44, 0.06-10 uM protein; 10 min at 37 C then 5 min at 0 C; gel at 4 C; settings: protein: recombinant; chain copies: 2; label: 5'-FAM; single strand
TdT WT = TdT WT (human, UniProt P04053 1-509); assay: as above; settings: protein: recombinant; chain copies: 2; label: 5'-FAM; single strand
TdT F404A = TdT F404A (human, UniProt P04053 1-509, F404A); assay: as above; settings: protein: recombinant; chain copies: 2; label: 5'-FAM; single strand
TdT F404W = TdT F404W (human, UniProt P04053 1-509, F404W); assay: as above; settings: protein: recombinant; chain copies: 2; label: 5'-FAM; single strand
TdT L397A = TdT L397A (human, UniProt P04053 1-509, L397A); assay: as above; settings: protein: recombinant; chain copies: 2; label: 5'-FAM; single strand
Chain of TdT L397A (P04053 whole entry L397A): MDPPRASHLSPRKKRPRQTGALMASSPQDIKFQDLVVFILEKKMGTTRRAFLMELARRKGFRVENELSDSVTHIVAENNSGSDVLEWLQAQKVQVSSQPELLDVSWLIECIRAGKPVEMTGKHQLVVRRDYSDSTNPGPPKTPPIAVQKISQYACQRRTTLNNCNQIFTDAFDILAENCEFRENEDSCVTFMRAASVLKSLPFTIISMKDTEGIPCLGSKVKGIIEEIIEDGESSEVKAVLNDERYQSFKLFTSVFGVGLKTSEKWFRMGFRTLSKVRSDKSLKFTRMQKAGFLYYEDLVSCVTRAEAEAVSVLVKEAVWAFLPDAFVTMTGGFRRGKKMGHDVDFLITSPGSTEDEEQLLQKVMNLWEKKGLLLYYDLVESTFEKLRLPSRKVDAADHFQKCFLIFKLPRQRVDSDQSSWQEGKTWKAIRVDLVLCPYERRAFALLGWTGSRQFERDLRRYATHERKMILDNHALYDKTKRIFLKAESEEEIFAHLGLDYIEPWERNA

T3 sequence (P04053 whole entry F400A): as the sequence (P04053 whole entry L397A) above, with A397L, F400A counted along it
Chain of TdT F400A (P04053 whole entry F400A): as the sequence (P04053 whole entry L397A) above, with A397L, F400A counted along it
Chain of TdT WT (P04053 whole entry): as the sequence (P04053 whole entry L397A) above, with A397L counted along it
T1 sequence (P04053 whole entry): as the sequence (P04053 whole entry L397A) above, with A397L counted along it
T2 sequence (P04053 whole entry L397A): as the sequence (P04053 whole entry L397A) above
Chain of TdT F404W (P04053 whole entry F404W): as the sequence (P04053 whole entry L397A) above, with A397L, F404W counted along it
T4 sequence (P04053 whole entry F404W): as the sequence (P04053 whole entry L397A) above, with A397L, F404W counted along it
Chain of TdT F404A (P04053 whole entry F404A): as the sequence (P04053 whole entry L397A) above, with A397L, F404A counted along it
T5 sequence (P04053 whole entry F404A): as the sequence (P04053 whole entry L397A) above, with A397L, F404A counted along it

Molecule | Kd [1] | Kd [2] | Kd [3] | Kd [4] | Kd [5] | Kd (TdT F400A) | Kd (TdT WT) | Kd (TdT F404A) | Kd (TdT F404W) | Kd (TdT L397A)
Flu-dUTP | 0.9 ± 0.1 µM | 1.5 ± 0.2 µM | 1.1 ± 0.1 µM | 1 ± 0.1 µM | 1.5 ± 0.2 µM |  |  |  |  | 
ATGCTATGGATTGATGTGACTAAGGTTGGAATGATGTGAAGAGA (ssDNA) [FAM-M44] |  |  |  |  |  | 980 ± 70 nM | 880 ± 80 nM | 1100 ± 90 nM | 1000 ± 100 nM | 970 ± 80 nM
